Changes are numbered by the printed parent chain.
How the values were obtained:
[1] = target: T1, cpSRP54–His (recombinant mature cpSRP54) (Arabidopsis thaliana, UniProt P37107); experiment: isothermal titration calorimetry; format: binding; settings: read-out: dissociation constant
T1 construct: gene FFC; mature protein, residues 79-564 (transit peptide removed), C-terminal His6, E. coli Rosetta (DE3), EDTA-treated then SEC in Mg buffer
T1 sequence (P37107 79-564): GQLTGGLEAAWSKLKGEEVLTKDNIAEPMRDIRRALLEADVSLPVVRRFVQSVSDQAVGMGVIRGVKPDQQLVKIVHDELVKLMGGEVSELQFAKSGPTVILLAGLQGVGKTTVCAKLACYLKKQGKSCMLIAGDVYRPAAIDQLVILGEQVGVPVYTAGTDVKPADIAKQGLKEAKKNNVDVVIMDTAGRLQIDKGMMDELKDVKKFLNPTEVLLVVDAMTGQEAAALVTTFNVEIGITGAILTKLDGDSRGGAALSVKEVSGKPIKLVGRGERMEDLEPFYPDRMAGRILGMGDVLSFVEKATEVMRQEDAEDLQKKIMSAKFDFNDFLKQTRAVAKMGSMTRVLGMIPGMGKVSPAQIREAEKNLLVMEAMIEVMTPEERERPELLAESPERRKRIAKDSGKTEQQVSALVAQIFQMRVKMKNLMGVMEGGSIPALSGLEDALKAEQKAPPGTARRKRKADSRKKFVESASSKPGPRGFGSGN

[2] = target: T2, cpSRP54–His (recombinant mature cpSRP54) (Arabidopsis thaliana, UniProt P37107, Q185R); experiment: isothermal titration calorimetry; format: binding; settings: read-out: dissociation constant
T2 construct: gene FFC; mature protein, residues 79-564 (transit peptide removed), C-terminal His6, E. coli Rosetta (DE3), EDTA-treated then SEC in Mg buffer
T2 sequence (P37107 79-564 Q185R): T1 sequence (P37107 79-564) with Q107R

Kd [1] [µM]	Kd [2] [µM]	SMILES
53.4	17.3	Nc1nc2c(ncn2[C@@H]2O[C@H](COP(=O)(O)OP(=O)(O)OP(=O)(O)O)[C@@H](O)[C@H]2O)c(=O)[nH]1 [GTP]
30.2	30.3	Nc1nc2c(ncn2[C@@H]2O[C@H](COP(=O)(O)OP(=O)(O)O)[C@@H](O)[C@H]2O)c(=O)[nH]1 [GDP]
